# Experimental data as given in EPA's ToxRefDB 2.
# Tests used:
# rat [1] = conditions: Multigenerational reproductive toxicity study, sprague dawley, Oral, Feed, dose end: 2 generation
# rabbit [2] = conditions: Prenatal developmental toxicity study, dutch, Oral, Gavage/Intubation, dose end: 18 GD
# dog [3] = conditions: Chronic toxicity, beagle, Oral, Capsule, dose end: 12 month, group: systemic
# rat [4] = conditions: Prenatal developmental toxicity study, wistar, Oral, Gavage/Intubation, dose end: 16 GD
# rat [5] = conditions: Combined chronic toxicity/carcinogenicity; wistar; Oral; Feed; dose end: 28 month; group: systemic; systemic / in life observation / body weight / body weight + systemic / in life observation / body weight / body weight gain
# rat [6] = conditions: Subchronic oral toxicity in rodents, wistar, Feed, dose end: 3 month, group: systemic
# dog [7] = conditions: Chronic toxicity, beagle, Oral, Feed, dose end: 12 month, group: systemic
# rat [8] = conditions: Combined chronic toxicity/carcinogenicity, sprague dawley, Oral, Feed, dose end: 104 week, group: systemic
# mouse = conditions: Carcinogenicity, cd1, Oral, [Not Specified], dose end: 18 month, group: systemic
# rat [9] = conditions: Combined chronic toxicity/carcinogenicity, sprague dawley, Oral, Feed, dose end: 105 week, group: systemic
# rabbit [10] = conditions: Prenatal developmental toxicity study, new zealand white, Oral, Gavage/Intubation, dose end: 18 GD
# [11] = group: offspring, systemic / in life observation / clinical signs / reduced body size
# [12] = group: offspring, systemic / in life observation / clinical signs / reduced body size + systemic / in life observation / body weight / offspring (pup) weight
# [13] = group: parental, systemic / in life observation / body weight / body weight + systemic / in life observation / body weight / body weight gain + systemic / in…
# [14] = group: parental, systemic / in life observation / body weight / body weight + systemic / in life observation / food consumption / food consumption
# [15] = group: developmental, developmental / developmental malformation / bone / incomplete ossification + developmental / developmental malformation / bone / misshapen…
# [16] = group: maternal, reproductive / reproductive performance / aborted / aborted + systemic / in life observation / food consumption / food consumption + …
# [17] = systemic / clinical chemistry / gamma glutamyl transferase (ggt) / gamma glutamyl transferase (ggt)
# [18] = systemic / in life observation / body weight / body weight + systemic / in life observation / body weight / body weight gain + systemic / in…
# [19] = group: developmental, developmental / developmental malformation / bone / bent + developmental / developmental malformation / bone / incomplete ossification + …
# [20] = group: maternal, reproductive / reproductive performance / resorptions / resorptions + systemic / in life observation / body weight / body weight gain + …
# [21] = systemic / hematology / hemoglobin (hgb) / hemoglobin (hgb) + systemic / in life observation / body weight / body weight gain + systemic / …
# [22] = systemic / urinalysis / appearance and color / appearance and color
# [23] = systemic / in life observation / clinical signs / fur (altered appearance) + systemic / in life observation / clinical signs / urine …
# [24] = systemic / in life observation / food consumption / food consumption + systemic / in life observation / body weight / body weight
# [25] = systemic / clinical chemistry / aspartate aminotransferase (ast/sgot) / aspartate aminotransferase (ast/sgot)
# [26] = systemic / in life observation / mortality / mortality + systemic / pathology gross / mammary gland / cyst + systemic / pathology gross / …
# [27] = group: developmental, developmental / developmental malformation / bone / supernumerary
# [28] = group: developmental, developmental / developmental malformation / bone / supernumerary + developmental / developmental malformation / heart / [other] + …
# [29] = group: maternal, systemic / in life observation / body weight / body weight gain + systemic / in life observation / food consumption / food consumption
structure (smiles),measurement,setting,value
CCCN(CCC)c1c([N+](=O)[O-])cc(C(F)(F)F)cc1[N+](=O)[O-] [Trifluralin],LEL,rat [1]; [11],47 mg/kg/day
same,LOAEL,rat [1]; [11],47 mg/kg/day
same,NEL,rat [1]; [12],15 mg/kg/day
same,NOAEL,rat [1]; [12],15 mg/kg/day
same,NEL,rat [1]; [13],15 mg/kg/day
same,NOAEL,rat [1]; [13],15 mg/kg/day
same,LEL,rat [1]; [14],47 mg/kg/day
same,LOAEL,rat [1]; [14],47 mg/kg/day
same,LEL,rabbit [2]; [15],500 mg/kg/day
same,LOAEL,rabbit [2]; [15],500 mg/kg/day
same,NEL,rabbit [2]; [15],225 mg/kg/day
same,NOAEL,rabbit [2]; [15],225 mg/kg/day
same,LEL,rabbit [2]; [16],225 mg/kg/day
same,LOAEL,rabbit [2]; [16],225 mg/kg/day
same,NEL,rabbit [2]; [16],100 mg/kg/day
same,NOAEL,rabbit [2]; [16],100 mg/kg/day
same,LEL,dog [3]; [17],0.75 mg/kg/day
same,NEL,dog [3]; [17],< 0.75 mg/kg/day
same,NOAEL,dog [3]; systemic / clinical chemistry / gamma glutamyl transferase (ggt) / gamma glutamyl transferase (ggt) + systemic / in life observation / body …,2.4 mg/kg/day
same,LOAEL,dog [3]; [18],40 mg/kg/day
same,LEL,rat [4]; [19],500 mg/kg/day
same,LOAEL,rat [4]; [19],500 mg/kg/day
same,NEL,rat [4]; [19],100 mg/kg/day
same,NOAEL,rat [4]; [19],100 mg/kg/day
same,LEL,rat [4]; [20],500 mg/kg/day
same,LOAEL,rat [4]; [20],500 mg/kg/day
same,NEL,rat [4]; [20],100 mg/kg/day
same,NOAEL,rat [4]; [20],100 mg/kg/day
same,LEL,rat [5],169 mg/kg/day
same,LOAEL,rat [5],169 mg/kg/day
same,NEL,rat [5],40 mg/kg/day
same,NOAEL,rat [5],40 mg/kg/day
same,LOAEL,rat [6]; [21],392 mg/kg/day
same,NOAEL,rat [6]; [21],154 mg/kg/day
same,LEL,rat [6]; [22],59 mg/kg/day
same,NEL,rat [6]; [22],< 59 mg/kg/day
same,NEL,dog [7]; systemic / hematology / methemoglobin / methemoglobin + systemic / clinical chemistry / cholesterol / cholesterol + systemic / clinical …,0.8 mg/kg/day
same,LOAEL,dog [7]; systemic / organ weight / liver / absolute,3.8 mg/kg/day
same,NOAEL,dog [7]; systemic / organ weight / liver / absolute + systemic / clinical chemistry / cholesterol / cholesterol + systemic / clinical chemistry / …,0.8 mg/kg/day
same,LEL,dog [7]; systemic / organ weight / liver / absolute + systemic / hematology / methemoglobin / methemoglobin,3.8 mg/kg/day
"CC1(C)C(=O)N(Cl)C(=O)N1Cl [1,3-Dichloro-5,5-dimethylhydantoin]",NOAEL,rat [8]; [18],300 mg/kg/day
same,LOAEL,rat [8]; systemic / in life observation / body weight / body weight + systemic / in life observation / body weight / body weight gain + systemic / …,1000 mg/kg/day
same,LEL,rat [8]; [23],100 mg/kg/day
same,NEL,rat [8]; [23],< 100 mg/kg/day
same,LEL,mouse; systemic / in life observation / body weight / body weight,320 mg/kg/day
same,NEL,mouse; systemic / in life observation / body weight / body weight + systemic / in life observation / food consumption / food consumption,100 mg/kg/day
same,LOAEL,mouse; [24],> 1000 mg/kg/day
same,NOAEL,mouse; [24],≥ 1000 mg/kg/day
same,LEL,rat [9]; [25],100 mg/kg/day
same,NEL,rat [9]; [25],< 100 mg/kg/day
same,LOAEL,rat [9]; [26],1000 mg/kg/day
same,NOAEL,rat [9]; [26],320 mg/kg/day
same,LEL,rabbit [10]; [27],500 mg/kg/day
same,LOAEL,rabbit [10]; [27],500 mg/kg/day
same,NEL,rabbit [10]; [28],100 mg/kg/day
same,NOAEL,rabbit [10]; [28],100 mg/kg/day
same,LEL,rabbit [10]; [29],1000 mg/kg/day
same,LOAEL,rabbit [10]; [29],1000 mg/kg/day
same,NEL,rabbit [10]; [29],500 mg/kg/day
same,NOAEL,rabbit [10]; [29],500 mg/kg/day
